From US20240425478A1, “CYCLOPENTYLPYRAZOLE CDK2 INHIBITORS” (Genentech, Inc., priority 2021, published 2024)
Where two headings read alike, the source gives them in different places.

Assays:
[1] = target: T1, Cyclin Dependent Kinase 4/Cyclin D3 (CDK4-cycD3) (Homo sapiens, UniProt P11802); test: CDK4-cycD3 TR-FRET (LANCE) enzyme assay; format: biochemical; conditions: for Ki: Table O, enzymatic assay; for FS CDK4/CDK2: fold selectivity, enzymatic Ki ratio
T1 construct: purchased Carna Biosciences 04-105
Procedure: (§1) Cyclin Dependent Kinase 1/Cyclin A2 (CDK1-cycA2), Cyclin Dependent Kinase 2/Cyclin E1 (CDK2-cycE1), Cyclin Dependent Kinase 4/Cyclin D3 (CDK4-cycD3) and Cyclin Dependent Kinase 6/Cyclin D3 (CDK6-cycD3) enzyme assays were carried out as described below.
(iii) CDK4-cycD3 TR-FRET (LANCE®)
(§2) An Echo acoustic dispenser is used to create dose responses of compound dissolved in DMSO into a 384-well microplate. A 5 μL volume of enzyme mix is added to the well, and pre-incubated with compound for 30 minutes. […] Buffer conditions are 50 mM HEPES, pH 7.5, 10 mM MgCl2, 2 mM TCEP, 0.05% BGG and 0.01% Brij 35. The reaction is quenched with 5 μL of EDTA in detection buffer (15 mM [EDTA final]). Finally, a 5 μL TR-FRET detection mix is added to the quenched reaction, which includes Europium labeled anti-phospho-4E-BP1. […] Signal is a ratio of the Acceptor and Donor fluorescence. Inhibition constants are calculated via the Morrison equation.

[2] = target: T2, Cyclin Dependent Kinase 2/Cyclin E1 (CDK2-cycE1) (Homo sapiens, UniProt P24941); test: CDK2-cycE1 TR-FRET (LANCE) enzyme assay; format: biochemical; conditions: for Ki: enzymatic assay, read-out: CDK2 Ki; for FS CDK1/CDK2 / FS CDK4/CDK2: fold selectivity; for increased fold-selectivity CDK4/CDK2 over Comparator C: (+) sign after FS CDK4/CDK2;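 on improvement in potency against CDK2 (Ki) over Comparator C: fold lower CDK2 Ki than comparator c (Ki 0.032 µM)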
T2 construct: purchased ProQinase 0050-0055-1
Procedure: as §1
(ii) CDK2-cycE1 TR-FRET (LANCE®)
as §2, with “anti-phospho-MBP.” for “anti-phospho-4E-BP1.”, “equation. Enzyme source of CDK2-cycE1 is ProQinase, catalog #: 0050-0055-1.” for “equation.”

[3] = test system: OVISE (JCRB1043, CCNE1-amplified); test: OVISE EdU incorporation cell proliferation assay (CDK2-dependent); format: cell-based; conditions: for IC50: cellular assay, read-out: CDK2 OVISE IC50; for FS SKOV-3/OVISE: fold selectivity; for increased fold-selectivity SKOV-3/OVISE over Comparator C: (+) sign after FS SKOV-3/OVISE; for improvement in CDK2 OVISE cell potency over Comparator C: Comparator C 5.5 μM
Procedure: (§3) (i) OVISE and SKOV-3 EdU Incorporation Cell Proliferation Assays
(§4) Ovarian cancer cell proliferation is measured by incorporation of EdU (5-ethynyl-2′-deoxyuridine) into newly synthesized DNA. CDK2-dependent proliferation is determined using OVISE (JCRB1043, CCNE1-amplified) while CDK4/6-dependent effect is determined with SKOV-3 (ATCC HTB-77) which is not CCNE1-amplified.
(§5) Cells are plated in 384-well plates in RPMI medium supplemented with 10% FBS. Compounds are added at desired concentrations with a final DMSO content of 0.5%, and cells incubated at 37° C./5% CO2 for 16 hours. EdU (Life Technologies) is added to a final concentration of 0.5 μM and incubation continued for 8 hours, followed by fixation with 4% paraformaldehyde. […] Images are acquired using Yokogawa CQ1 imaging cytometer with a 10×objective. […] The IC50 for inhibition of cell division is determined by fitting the fraction of EdU-positive cells as a function of compound dose using a 4-parameter logistic model.

[4] = target: T3, Cyclin Dependent Kinase 1/Cyclin A2 (CDK1-cycA2) (Homo sapiens, UniProt P06493); test: CDK1-cycA2 TR-FRET (Lance) enzyme assay; format: biochemical; conditions: for Ki: Table O, enzymatic assay; for FS CDK1/CDK2: fold selectivity, enzymatic Ki ratio
T3 construct: purchased ProQinase 0134-0054-1
Procedure: as §1
(1) CDK1-cycA2 TR-FRET (Lance®)
as §2

SKOV-3 (ATCC HTB-77) = test: SKOV-3 EdU incorporation cell proliferation assay (CDK4/6-dependent); format: cell-based; conditions: for IC50: Homo sapiens, cellular assay, read-out: CDK4/6 SKOV-3 IC50; for FS SKOV-3/OVISE: fold selectivity, cellular IC50 ratio
Procedure: as §3, §4, §5

[5] = Table O, enzymatic CDK1 Ki over CDK2 Ki
[6] = Table O, enzymatic CDK4 Ki over CDK2 Ki
[7] = Table O, cellular SKOV-3 IC50 over OVISE IC50
[8] = Table Q, in brackets after OVISE IC50

T1 sequence (P11802 whole entry): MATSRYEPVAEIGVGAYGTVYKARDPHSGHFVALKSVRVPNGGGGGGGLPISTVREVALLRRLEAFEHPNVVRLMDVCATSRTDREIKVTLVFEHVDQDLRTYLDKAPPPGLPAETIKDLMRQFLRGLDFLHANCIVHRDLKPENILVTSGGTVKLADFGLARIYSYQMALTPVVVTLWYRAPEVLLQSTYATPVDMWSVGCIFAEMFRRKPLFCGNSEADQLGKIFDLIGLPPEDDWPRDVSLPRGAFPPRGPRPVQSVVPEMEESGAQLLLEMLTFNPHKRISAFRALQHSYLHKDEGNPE
T1 sequence (P30281 whole entry partner): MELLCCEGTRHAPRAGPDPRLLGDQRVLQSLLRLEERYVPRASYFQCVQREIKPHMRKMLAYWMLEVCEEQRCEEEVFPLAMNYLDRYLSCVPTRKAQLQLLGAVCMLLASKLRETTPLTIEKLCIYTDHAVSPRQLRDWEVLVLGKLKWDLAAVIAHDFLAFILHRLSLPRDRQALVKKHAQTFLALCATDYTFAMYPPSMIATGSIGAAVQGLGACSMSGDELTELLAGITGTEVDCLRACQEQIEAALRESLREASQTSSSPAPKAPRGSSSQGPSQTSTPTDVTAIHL
T3 sequence (P06493 whole entry): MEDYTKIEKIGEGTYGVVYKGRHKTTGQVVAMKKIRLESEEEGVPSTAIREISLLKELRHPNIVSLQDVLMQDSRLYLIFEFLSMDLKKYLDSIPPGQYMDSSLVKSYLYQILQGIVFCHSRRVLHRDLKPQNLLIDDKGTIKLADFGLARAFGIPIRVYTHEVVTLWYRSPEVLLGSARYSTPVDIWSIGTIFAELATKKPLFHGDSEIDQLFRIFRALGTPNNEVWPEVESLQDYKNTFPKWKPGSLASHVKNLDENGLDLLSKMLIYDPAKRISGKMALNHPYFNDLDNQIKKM
T3 sequence (P20248 whole entry partner): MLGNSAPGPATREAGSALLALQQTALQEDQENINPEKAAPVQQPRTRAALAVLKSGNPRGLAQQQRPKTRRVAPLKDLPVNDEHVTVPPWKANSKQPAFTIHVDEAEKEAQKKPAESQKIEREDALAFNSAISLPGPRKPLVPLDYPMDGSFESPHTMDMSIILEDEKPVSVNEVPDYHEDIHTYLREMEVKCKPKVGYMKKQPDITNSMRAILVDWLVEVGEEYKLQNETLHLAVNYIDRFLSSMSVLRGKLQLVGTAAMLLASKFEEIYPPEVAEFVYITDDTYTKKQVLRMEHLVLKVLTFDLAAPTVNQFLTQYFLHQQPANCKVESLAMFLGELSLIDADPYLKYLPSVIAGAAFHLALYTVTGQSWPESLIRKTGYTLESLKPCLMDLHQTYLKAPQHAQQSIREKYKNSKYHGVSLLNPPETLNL

SMILES	Ki [1] [nM]	Ki ([2]; Table O) [nM]	FS CDK1/CDK2 [2, 5]	FS CDK4/CDK2 [2, 6]	IC50 ([3]; Table O) [nM]	FS SKOV-3/OVISE [3, 7]	Ki [4] [nM]	IC50 (SKOV-3 (ATCC HTB-77); SK-OV-3, Table O) [nM]	further results
CC(C)NC(=O)O[C@@H]1CC[C@H](c2cc(Nc3ccn(C)c(=O)c3)n[nH]2)C1 [Example 2AA, (1R,3S)-3-(3-((1-methyl-2-oxo-1,2-dihydropyridin-4-yl)amino)-1H-pyrazol-5-y1)cyclopenty1 isopropylcarbamate]	450	17	26	26	4100	>49	440	> 20000	increased fold-selectivity CDK4/CDK2 over Comparator C ([2]; Table Q): (+) (The (+) sign in Table Q signifies desirable increased fold-selectivity of the exemplary compounds over Comparator C); Ki ([2]; Table Q): 17 nM; FS CDK1/CDK2 ([2]; Table Q, enzymatic): 26; FS CDK4/CDK2 ([2]; Table Q, enzymatic): 26; improvement in potency against CDK2 (Ki) over Comparator C ([2]; Table Q, in brackets after CDK2 Ki, Comparator C 0.032 μM): 1.9 fold; increased fold-selectivity SKOV-3/OVISE over Comparator C ([3]; Table Q): (+) (The (+) sign in Table Q signifies desirable increased fold-selectivity of the exemplary compounds over Comparator C); FS SKOV-3/OVISE ([3]; Table Q, cellular): > 4.9; improvement in CDK2 OVISE cell potency over Comparator C [3, 8]: 1.3 fold; IC50 (SKOV-3 (ATCC HTB-77); SK-OV-3, Table Q): > 20000 nM
O=C(NC1(C(F)(F)F)CC1)O[C@@H]1CC[C@H](c2cc(Nc3cccnn3)n[nH]2)C1 [Example 5, (1R,3S)-3-(3-(pyridazin-3-ylamino)-1H-pyrazol-5-yl)cyclopentyl (1-(trifluoromethyl)cyclopropyl)carbamate]	280	11	25	25	460	13	270	5800	
CNC(=O)c1ccc(Nc2cc([C@H]3CC[C@@H](OC(=O)NC4(C)CC4)C3)[nH]n2)c(C)n1 [Example 7A, (1R,3S)-3-(3-((2-methyl-6-(methylcarbamoyl)pyridin-3-yl)amino)-1H-pyrazol-5-yl)cyclopentyl (1-methylcyclopropyl)carbamate]	590	14	39	42	1400	>14	550	> 20000	
COc1ncc(Nc2cc([C@H]3CC[C@@H](OC(=O)NC(C)C)C3)[nH]n2)cn1 [Example 2FF, (1R,3S)-3-(3-((2-methoxypyrimidin-5-yl)amino)-1H-pyrazol-5-yl)cyclopentyl isopropylcarbamate]	950	14	23	68	1200	>17	320	> 20000	
CC(C)NC(=O)O[C@@H]1CC[C@H](c2cc(Nc3ccc(-n4cccn4)cn3)n[nH]2)C1 [Example 2DD, (1R,3S)-3-(3-((5-(1H-pyrazol-1-yl)pyridin-2-yl)amino)-1H-pyrazol-5-yl)cyclopentyl isopropylcarbamate]	350	13	52	27	610	23	680	> 20000	improvement in potency against CDK2 (Ki) over Comparator C [2]: 2.5 fold; increased fold-selectivity CDK1/CDK2 over Comparator C ([2]; Table Q, (+) sign after FS CDK1/CDK2): (+) (The (+) sign in Table Q signifies desirable increased fold-selectivity of the exemplary compounds over Comparator C); increased fold-selectivity CDK4/CDK2 over Comparator C ([2]; Table Q): (+) (The (+) sign in Table Q signifies desirable increased fold-selectivity of the exemplary compounds over Comparator C); Ki ([2]; Table Q): 13 nM; FS CDK1/CDK2 ([2]; Table Q, enzymatic): 52; FS CDK4/CDK2 ([2]; Table Q, enzymatic): 27; increased fold-selectivity SKOV-3/OVISE over Comparator C ([3]; Table Q): (+) (The (+) sign in Table Q signifies desirable increased fold-selectivity of the exemplary compounds over Comparator C); FS SKOV-3/OVISE ([3]; Table Q, cellular): 23; improvement in CDK2 OVISE cell potency over Comparator C [3, 8]: 9 fold; IC50 (SKOV-3 (ATCC HTB-77); SK-OV-3, Table Q): 14000 nM
CC(C)NC(=O)O[C@@H]1CC[C@H](c2cc(Nc3ccc(-n4ccnc4)nc3)n[nH]2)C1 [Example 2J, (1R,3S)-3-(3-((6-(1H-imidazol-1-yl)pyridin-3-yl)amino)-1H-pyrazol-5-yl)cyclopentyl isopropylcarbamate]	230	10	20	23	440	25	200	11000	
Cc1cc(=O)n(C)nc1Nc1cc([C@H]2CC[C@@H](OC(=O)NC(C)(C)C)C2)[nH]n1 [Example 4C, (1R,3S)-3-(3-((1,4-dimethyl-6-oxo-1,6-dihydropyridazin-3-yl)amino)-1H-pyrazol-5-yl)cyclopentyl tert-butylcarbamate]	580	2.1	31	280	600	32	65	19000	FS CDK4/CDK2 increased over Comparator D, (+) sign ([1]; Table R): (+); FS CDK4/CDK2 ([1]; Table R): 280; FS CDK4/CDK2 increased over Comparator E, (+) sign ([1]; Table S): (+); FS CDK4/CDK2 ([1]; Table S): 280; Ki ([2]; Table R): 2.1 nM; CDK2 Ki fold change in potency versus Comparator D ([2]; Table R, in brackets after CDK2 Ki): 1.3 fold; Ki ([2]; Table S): 2.1 nM; CDK2 Ki fold change in potency versus Comparator E ([2]; Table S, in brackets after CDK2 Ki): 0.3 fold; CDK2 OVISE IC50 fold change in potency versus Comparator D ([3]; Table R, in brackets after OVISE IC50): 6 fold; CDK2 OVISE IC50 fold change in potency versus Comparator E ([3]; Table S, in brackets after OVISE IC50): 0.3 fold; FS CDK1/CDK2 increased over Comparator D, (+) sign ([4]; Table R): (+); FS CDK1/CDK2 ([4]; Table R): 31; FS CDK1/CDK2 ([4]; Table S): 31; selectivity for CDK2 over CDK4 compared with Comparator E (SKOV-3 (ATCC HTB-77); SKOV-3/OVISE fold-selectivity cellular assay data): increase in selectivity for CDK2 over CDK4; FS SKOV-3/OVISE increased over Comparator D, (+) sign (SKOV-3 (ATCC HTB-77); Table R): (+); FS SKOV-3/OVISE (SKOV-3 (ATCC HTB-77); Table R): 32; FS SKOV-3/OVISE increased over Comparator E, (+) sign (SKOV-3 (ATCC HTB-77); Table S): (+); FS SKOV-3/OVISE (SKOV-3 (ATCC HTB-77); Table S): 32
Cc1ncccc1Nc1cc([C@H]2CC[C@@H](OC(=O)N[C@@H]3CCN(C)C3)C2)[nH]n1 [Example 7B, (1R,3S)-3-(3-((2-methylpyridin-3-yl)amino)-1H-pyrazol-5-yl)cyclopentyl ((R)-1-methylpyrrolidin-3-yl)carbamate]	6500	300	11	22	17000	>1.2	3300	> 20000	
Cn1c(Nc2cc([C@H]3CC[C@@H](OC(=O)NC(C)(C)C)C3)[nH]n2)ccnc1=O [Example 8A, (1R,3S)-3-(3-((3-methyl-2-oxo-2,3-dihydropyrimidin-4-yl)amino)-1H-pyrazol-5-yl)cyclopentyl tert-butylcarbamate]		270	41	185	20000	>1	11000	> 20000	
Cn1c(Nc2cc([C@H]3CC[C@@H](OC(=O)NC45CC(C4)C5)C3)[nH]n2)nccc1=O [Example 9A, (1R,3S)-3-(3-((1-methyl-6-oxo-1,6-dihydropyrimidin-2-yl)amino)-1H-pyrazol-5-yl)cyclopentyl bicyclo[1.1.1]pentan-1-ylcarbamate]	150							3000	
